Source: patent US5635483A, “Tumor inhibiting tetrapeptide bearing modified phenethyl amides” (priority 1992, dated 1997)

How the values were obtained:
Assay type in all cases: cell-based
P-388 = test: Murine P388 lymphocytic leukemia cell growth inhibition; settings: Mouse leukemia cell P-388
Description: (§1) The extraordinary inhibition of cell growth shown by the tetrapeptide 6a-k against six major types of human cancer and against the murine P388 lymphocytic leukemia cell line has been presented in Table 1-2, below.

OVCAR-3 = test: NCI human tumor cell line screen, ovarian OVCAR-3; settings: for GI-50 / TGI: Human cancer cell; for LC-50: Human cancer cells
Description: (§2) Current research in the control of cancer in the United States is coordinated by the National Cancer Institute (NCI). To determine whether a substance has anti-cancer properties, the NCI has established a systematic protocol. […] The protocol, and the established statistical means for analyzing the results obtained by the standardized testing are fully described in the literature. See: Body, Dr. Michael R., Principles & Practice of Oncology, PPO Updates, Volume 3, Number 10, October 1989, for an in depth description of the testing protocol; and Paull, K. D., "Display and Analysis of Patterns of Differential Activity of Drugs Against Human Tumor Cell Lines; Development of Mean Graph and COMPARE Algorithm", Journal of the National Cancer Institute Reports, Vol. 81, No. 14, Page 1088, Jul. 14, 1989 for a description of the methods of statistical analysis. Both of these references are incorporated herein by this reference thereto.

SF-295 = test: NCI human tumor cell line screen, CNS SF-295; settings: for GI-50 / TGI: Human cancer cell; for LC-50: Human cancer cells
Description: (§3) Current research in the control of cancer in the United States is coordinated by the National Cancer Institute (NCI). To determine whether a substance has anti-cancer properties, the NCI has established a systematic protocol. This protocol, which involves the testing of a substance against a standard cell line panel containing 60 human tumor cell lines, has been verified and has been accepted in scientific circles. The protocol, and the established statistical means for analyzing the results obtained by the standardized testing are fully described in the literature. See: Body, Dr. Michael R., Principles & Practice of Oncology, PPO Updates, Volume 3, Number 10, October 1989, for an in depth description of the testing protocol; and Paull, K. D., "Display and Analysis of Patterns of Differential Activity of Drugs Against Human Tumor Cell Lines; Development of Mean Graph and COMPARE Algorithm", Journal of the National Cancer Institute Reports, Vol. 81, No. 14, Page 1088, Jul. 14, 1989 for a description of the methods of statistical analysis. Both of these references are incorporated herein by this reference thereto.
as §1

A498 = test: NCI human tumor cell line screen, renal A498; settings: for GI-50 / TGI: Human cancer cell; for LC-50: Human cancer cells
Description: as §2

NCI-460 = test: NCI human tumor cell line screen, Lung-NSC NCI-460; settings: for GI-50 / TGI: Human cancer cell; for LC-50: Human cancer cells
Description: as §2

KM20L2 = test: NCI human tumor cell line screen, colon KM20L2; settings: for GI-50 / TGI: Human cancer cell; for LC-50: Human cancer cells
Description: as §2

SK-MEL-3 = test: NCI human tumor cell line screen, melanoma SK-MEL-3; settings: for GI-50 / TGI: Human cancer cell; for LC-50: Human cancer cells
Description: as §3, §1

human cancer cell line = test: Human cancer cell line activity compared with Dolastatin 10; settings: R-dolaphenine (Doe) substitution
Description: A series of Dolastatin 10 chiral isomers has been documented (See: Pettit et al., J. Med. Chem., 1990, 33, 3132). More recently these experiments were extended to synthesis of R-Doe-isodolastatin 10. […] The amide molecular length was then examined, starting with benzylamine, phenethylamine and 3-phenyl-1-propylamine. Also studied was a systematic series of modifications at the dolaphenine position introducing a substituted nitrogen instead of a phenyl ring.

Substance	ED-50 (P-388) [µg/mL]	GI-50 (OVCAR-3) [µg/mL]	TGI (OVCAR-3) [ng/mL]	LC-50 (OVCAR-3) [µg/mL]	GI-50 (SF-295) [µg/mL]	TGI (SF-295) [ng/mL]	LC-50 (SF-295) [µg/mL]	GI-50 (A498) [µg/mL]	TGI (A498) [ng/mL]	LC-50 (A498) [µg/mL]	GI-50 (NCI-460) [µg/mL]	TGI (NCI-460) [ng/mL]	LC-50 (NCI-460) [µg/mL]	GI-50 (KM20L2) [µg/mL]	TGI (KM20L2) [ng/mL]	LC-50 (KM20L2) [µg/mL]	GI-50 (SK-MEL-3) [µg/mL]	TGI (SK-MEL-3) [ng/mL]	LC-50 (SK-MEL-3) [µg/mL]	human cancer cell line activity when compared with Dolastatin 10 (human cancer cell line)
[2S-[1 [1R*(R*),2S*],2R*[1S*,2S*]]]-N,N-dimethyl-L-valyl-N-[2-methoxy-4-[2-[1-methoxy-2-methyl-3-oxo-3-[[2-(4-bromo-phenyl)-ethyl]amino]propyl]-1-pyrrolidinyl-l-(methylpropyl)-4-oxo butyl]-N-methyl-L-valineamide [Peptide 6e]	0.00515	0.00015	0.5	0.0094	0.00043	> 10	> 0.01	0.00046	> 10	> 0.01	0.00027	1.2	> 0.01	0.00032	4.1	> 0.01	0.00038	> 10	> 0.01	
[2S-[1[1R*(R*),2S*],2R*[1S*,2S*]]]-N,N-dimethyl-L-valyl-N-[2-methoxy-4-[2-[1-methoxy-2-methyl-3-oxo-3-[[2-(4-chlor-phenyl)-ethyl]amino]propyl]-1-pyrrolidinyl-1-(methylpropyl)-4-oxo butyl]-N-methyl-L-valineamide [Peptide 6c]	0.00553	< 0.000001	< 0.001	> 0.01	0.000010	1.9	> 0.01	0.00062	> 10	> 0.01	< 0.000001	1.1	> 0.01	< 0.000001	1.1	> 0.01	< 0.000001	> 10	> 0.01	
[2S-[1[1R*(R*),2S*],2R*[1S*,2S*]]]-N,N-dimethyl-L-valyl-N-[2-methoxy-4-[2-[1-methoxy-2-methyl-3-oxo-3-[[2-(2-chlor-phenyl)-ethyl]amino]propyl]-1-pyrrolidinyl-1-(methylpropyl)-4-oxo butyl]-N-methyl-L-valineamide [Peptide 6g]	0.000289	< 0.000001	< 0.001	> 0.01	< 0.000001	> 10	> 0.01	< 0.000001	2	> 0.01	< 0.000001	0.11	> 0.01	< 0.000001	0.38	> 0.01	< 0.000001	> 10	> 0.01	
[2S-[1[1R*(R*),2S*],2R*[1S*,2S*]]]-N,N-dimethyl-L-valyl-N-[2-methoxy-4-[2-[1-methoxy-2-methyl-3-oxo-3-[[2-(4-nitro-phenyl)-ethyl]amino]propyl]-1-pyrrolidinyl-1-(methylpropyl)-4-oxo butyl]-N-methyl-L-valineamide [Peptide 6b]	0.0459	0.00024	0.65	> 0.01	0.00035	> 10	> 0.01	0.00064	> 10	> 0.01	0.00028	1.2	> 0.01	0.0003	1.3	> 0.01	0.00012	1.3	> 0.01	
[2S-[1[1R*(R*),2S*],2R*[1S*,2S*, 3(1S*, 2R*)]]]-N,N-dimethyl-L-valyl-N-[2-methoxy-4-[2-[1-methoxy-2-methyl-3-oxo-3-[[1-phenyl-1-hydroxy-2-propyl]amino]propyl]-1-pyrrolidinyl-1-(methylpropyl)-4-oxobutyl]-N-methyl-L-valine amide [Peptide 6k]	0.000434	0.00017	0.53	> 0.01	0.0006	> 10	> 0.01	0.00075	> 10	> 0.01	0.0003	1	> 0.01	0.00029	1.3	> 0.01	0.00058	> 10	> 0.01	
R-Doe-isodolastatin 10																				does not result in any significant difference
[2S-[1[1R*(R*),2S],2R*[1S*,2S*]]]-N,N-dimethyl-L-valyl-N-[2-methoxy-4-[2-[1-methoxy-2-methyl-3-oxo-3-[[2-(3,4-dimethoxy-phenyl)-ethyl]amino]propyl]-1- pyrrolidinyl-1-(methylpropyl)-4-oxobutyl]-N-methyl-L-valineamide [Peptide 6a]	0.0035	0.000007	0.061	> 0.0001	0.000029	0.083	> 0.0001	0.000016	> 0.1	> 0.0001	0.000031	0.094	> 0.0001	0.000025	0.061	> 0.0001	0.000018	0.058	> 0.0001	
